Assay results published in ChEMBL document CHEMBL4483862, “Open-source discovery of chemical leads for next-generation chemoprotective antimalarials” (2018).

Tested on: Plasmodium berghei
Assay: Luciferase/luciferin-expressing antifolate-resistant parasites were used to infect a culture of HepG2 cells that were pre-incubated with compounds. Infected hepatocytes emit light due to the luciferase reaction. Assay results are presented as the percent inhibition of light emission compared to control. […]
Assay type: functional
Settings: sporozoite; for IC90: read-out: LUCIFERASE INFECTION ASSAY - IC90
[1] = read-out: LUCIFERASE INFECTION ASSAY - IC50

In the case of `COCCCNC(=S)Nc1cccc2ccccc12`, the IC50 (HEPG2TOX_HILL_SLOPE 10.4, HEPG2TOX_R_SQUARED 0.777, PBLUC_HILL_SLOPE 18.1, PBLUC_R_SQUARED 0.604, read-out: LUCIFERASE INFECTION ASSAY - IC50) is reported as 11.8 µM and the IC90 is reported as > 12 µM.
`COc1cccc(Cn2nc(C(=O)NC3CC3)c3c2CCN(Cc2cc4c(cc2Cl)OCO4)C3)c1` was tested, and the IC50 (PBLUC_HILL_SLOPE 2.62, PBLUC_R_SQUARED 0.537, read-out: LUCIFERASE INFECTION ASSAY - IC50) was 3.5 µM and the IC90 was > 6.67 µM.
Compound `c1cncc(-c2nc(Nc3ccc4n[nH]cc4c3)c3ccccc3n2)c1` has an IC50 (HEPG2TOX_HILL_SLOPE 1.55, HEPG2TOX_R_SQUARED 0.922, PBLUC_HILL_SLOPE 123, PBLUC_R_SQUARED 0.319, read-out: LUCIFERASE INFECTION ASSAY - IC50) of 3.33 µM and an IC90 of 3.39 µM.
Compound `CC(C)CC(NC(=O)c1ccc(C#N)cc1)c1ccccc1` (centres undefined) has an IC50 (PBLUC_HILL_SLOPE 10.9, 7.64, PBLUC_R_SQUARED 0.439, 0.355, read-out: LUCIFERASE INFECTION ASSAY - IC50) of 8.11 µM and an IC90 of 9.52 µM.
In the case of `CC(C)(C)C(=O)CSc1nnc(Nc2ccc(Oc3ccccc3)cc2)s1`, the IC50 (PBLUC_HILL_SLOPE 14.1, PBLUC_R_SQUARED 0.105, read-out: LUCIFERASE INFECTION ASSAY - IC50) is reported as 9.89 µM and the IC90 is reported as > 10 µM.
In the case of `O=C(COc1ccccc1-c1ccccc1)NCC1CCCCC1`, the IC50 [1] is reported as > 10 µM and the IC90 is reported as > 10 µM.
With `O=C(CNc1cc(C(F)(F)F)cc(C(F)(F)F)c1)NC(=O)NC1CCCC1` the IC50 [1] was 5.94 µM and the IC90 was > 10 µM.
`O=C(CCN1CCN(C(c2ccccc2)c2ccccc2)CC1)NNC(=O)c1ccc(I)cc1` was tested, and the IC50 [1] was > 10 µM and the IC90 was > 10 µM.
With `O=[N+]([O-])c1ccc(NC2CCN(Cc3ccccc3)CC2)c2ccncc12` the IC50 [1] was 9.37 µM and the IC90 was > 10 µM.
`CCCCCCCCCCCCCCCCCC1=[N+](c2ccccc2)C(Nc2ccccc2)CN1c1ccccc1` (centres undefined) was tested, and the IC50 (HEPG2TOX_HILL_SLOPE 13, HEPG2TOX_R_SQUARED 0.218, read-out: LUCIFERASE INFECTION ASSAY - IC50) was > 5.61 µM and the IC90 was > 5.61 µM.
`Cc1cc(Cl)ccc1OCc1nnc(-c2ccccn2)[nH]1` gave an IC50 (HEPG2TOX_HILL_SLOPE 11.7, HEPG2TOX_R_SQUARED 0.29, PBLUC_HILL_SLOPE 34.3, PBLUC_R_SQUARED 0.372, read-out: LUCIFERASE INFECTION ASSAY - IC50) of 3.41 µM and an IC90 of 3.63 µM.
For `O=C(NC1CC1)c1ccc(CN(C2CC2)S(=O)(=O)c2cccc3c2N=S=N3)cc1`, the IC50 [1] was > 10 µM and the IC90 was > 10 µM.
For `O=C(Nc1cccnc1)C1=COC2=NC(=O)N(Cc3ccccc3C(F)(F)F)CCN12`, the IC50 [1] was > 10 µM and the IC90 was > 10 µM.
For `Cc1c(C(=O)OC(C)C(=O)Nc2ccc(F)cc2Cl)sc2nc3n(c(=O)c12)CCC3` (centres undefined), the IC50 (FFLUC_HILL_SLOPE 12.5, FFLUC_R_SQUARED 0.0754, PBLUC_HILL_SLOPE 2.35, PBLUC_R_SQUARED 0.872, read-out: LUCIFERASE INFECTION ASSAY - IC50) was 5.4 µM and the IC90 was > 10 µM.
`COCCOc1ccc(C(F)(F)F)cc1NC(=O)c1ccc2ncsc2c1` was tested, and the IC50 (PBLUC_HILL_SLOPE 1.17, PBLUC_R_SQUARED 0.0937, read-out: LUCIFERASE INFECTION ASSAY - IC50) was 8.48 µM and the IC90 was > 10 µM.
In the case of `CC1Cc2cc(C3=NNC(=NC4CC4)SC3)ccc2N1S(C)(=O)=O` (centres undefined), the IC50 (FFLUC_HILL_SLOPE 2.25, FFLUC_R_SQUARED 0.383, HEPG2TOX_HILL_SLOPE 1.12, HEPG2TOX_R_SQUARED 0.483, PBLUC_HILL_SLOPE 1.74, PBLUC_R_SQUARED 0.672, read-out: LUCIFERASE INFECTION ASSAY - IC50) is reported as 0.197 µM and the IC90 is reported as 1.38 µM.
Work on `COc1cc(-c2ccc3ncc(-c4cccs4)n3n2)cc(OC)c1OC` yielded an IC50 (HEPG2TOX_HILL_SLOPE 2.45, HEPG2TOX_R_SQUARED 0.958, PBLUC_HILL_SLOPE 3.17, PBLUC_R_SQUARED 0.64, read-out: LUCIFERASE INFECTION ASSAY - IC50) of 2.04 µM and an IC90 of 4.08 µM.
`N#CC(=N)C(C#N)NCc1ccccc1Sc1ccc(Cl)cc1` (centres undefined) was tested, and the IC50 [1] was > 9.68 µM and the IC90 was > 9.68 µM.
In the case of `Clc1ccc(-c2cc(-c3csc(Nc4ccccc4Cl)n3)on2)c(Cl)c1`, the IC50 (HEPG2TOX_HILL_SLOPE 18.2, HEPG2TOX_R_SQUARED 0.802, PBLUC_HILL_SLOPE 3.06, PBLUC_R_SQUARED 0.131, read-out: LUCIFERASE INFECTION ASSAY - IC50) is reported as 7.18 µM and the IC90 is reported as > 7.81 µM.
With `Cc1oc(-n2cccc2)c(C#N)c1C(=O)Nc1nc(-c2ccccn2)cs1` the IC50 [1] was 9.43 µM and the IC90 was > 10 µM.
`Cc1ccc(C)c(-n2c(SC(C)c3nc(N)nc(N(C)C)n3)nc3ccccc3c2=O)c1` (centres undefined) was tested, and the IC50 (FFLUC_HILL_SLOPE 0.719, FFLUC_R_SQUARED 0.145, PBLUC_HILL_SLOPE 15.9, PBLUC_R_SQUARED 0.219, read-out: LUCIFERASE INFECTION ASSAY - IC50) was 9.47 µM and the IC90 was > 10 µM.
`COc1cnc(-c2ccccn2)nc1SCc1ccccc1` was tested, and the IC50 [1] was 9.29 µM and the IC90 was > 10.7 µM.
`CC(=O)c1ccc(-c2cnc(N)c(-c3cccc(N(C)C)c3)c2)s1` showed an IC50 (HEPG2TOX_HILL_SLOPE 12.1, HEPG2TOX_R_SQUARED 0.413, PBLUC_HILL_SLOPE 8.96, PBLUC_R_SQUARED 0.727, read-out: LUCIFERASE INFECTION ASSAY - IC50) of 3.19 µM and an IC90 of 4.08 µM.
With `CCOC(=O)N1CCC(NCC(O)COc2ccc(C(C)(C)C)cc2)CC1` (centres undefined) the IC50 (PBLUC_HILL_SLOPE 1.54, PBLUC_R_SQUARED 0.688, read-out: LUCIFERASE INFECTION ASSAY - IC50) was 4.08 µM and the IC90 was > 10 µM.
With `O=C(NCc1cn2ccccc2n1)c1cccc(S(=O)(=O)N2CCc3ccccc3C2)c1` the IC50 [1] was > 10 µM and the IC90 was > 10 µM.
Work on `COc1ccc(-c2cc(CN(C)c3ccc(S(=O)(=O)NC(C)(C)C)cc3[N+](=O)[O-])on2)cc1` yielded an IC50 (HEPG2TOX_HILL_SLOPE 80.3, HEPG2TOX_R_SQUARED 0.674, PBLUC_HILL_SLOPE 12.7, PBLUC_R_SQUARED 0.427, read-out: LUCIFERASE INFECTION ASSAY - IC50) of 3.54 µM and an IC90 of 4.2 µM.
For `CCOC(=O)c1c[nH]c2c(F)cc(F)cc2c1=O`, the IC50 [1] was > 13 µM and the IC90 was > 13 µM.
With `Cc1[nH]c2ccccc2c1/C=N/N(Cc1ccccc1)c1ccccc1` the IC50 [1] was > 10 µM and the IC90 was > 10 µM.
In the case of `Cc1sc2nc(-c3cccnc3)nc(N3CCN(C(=O)C4COc5ccccc5O4)CC3)c2c1C` (centres undefined), the IC50 (PBLUC_HILL_SLOPE 15.9, PBLUC_R_SQUARED 0.0253, read-out: LUCIFERASE INFECTION ASSAY - IC50) is reported as 9.35 µM and the IC90 is reported as > 10 µM.
For `CC(=O)N1CCN(S(=O)(=O)c2ccc(C(=O)NCCCCCCC(C)C)cc2)CC1`, the IC50 [1] was > 10 µM and the IC90 was > 10 µM.
In the case of `Cc1sc2ncnc(Sc3nnnn3-c3ccc(Cl)cc3)c2c1C`, the IC50 [1] is reported as > 10 µM and the IC90 is reported as > 10 µM.
In the case of `CC(c1ccc(S(C)(=O)=O)cc1)N(C)S(=O)(=O)c1ccccc1F` (centres undefined), the IC50 [1] is reported as > 10 µM and the IC90 is reported as > 10 µM.
`CS(=O)(=O)c1ccc2nc(NC(=O)c3cc(-c4ccccc4)nn3-c3ccccc3)sc2c1` was tested, and the IC50 (PBLUC_HILL_SLOPE 1.63, PBLUC_R_SQUARED 0.444, read-out: LUCIFERASE INFECTION ASSAY - IC50) was 4.67 µM and the IC90 was > 10 µM.
`O=C(Nc1ccc(Oc2cccc3cccnc23)cc1)c1cccs1` was tested, and the IC50 [1] was > 9.53 µM and the IC90 was > 9.53 µM.
`O=C(NC(c1ccc(F)cc1)c1cccs1)c1cc2ccccc2o1` (centres undefined) was tested, and the IC50 [1] was > 10 µM and the IC90 was > 10 µM.
`Cc1ncc(CO)c(/C=N/NC(=S)Nc2ccc(C(C)C)cc2)c1O` was tested, and the IC50 (HEPG2TOX_HILL_SLOPE 0.0695, HEPG2TOX_R_SQUARED 0.0364, read-out: LUCIFERASE INFECTION ASSAY - IC50) was > 10 µM and the IC90 was > 10 µM.
Compound `CCOC(=O)CSCc1noc(COc2ccc(Cl)cc2Cl)n1` has an IC50 (PBLUC_HILL_SLOPE 0.923, PBLUC_R_SQUARED 0.877, read-out: LUCIFERASE INFECTION ASSAY - IC50) of 0.0241 µM and an IC90 of 0.26 µM.
For `CC(C)CCN1C(=O)N(C(C)C)C(=O)C12CCN(Cc1c[nH]c3ccccc13)CC2`, the IC50 (HEPG2TOX_HILL_SLOPE 1.06, HEPG2TOX_R_SQUARED 0.491, PBLUC_HILL_SLOPE 3.87, PBLUC_R_SQUARED 0.243, read-out: LUCIFERASE INFECTION ASSAY - IC50) was > 8.04 µM and the IC90 was > 8.04 µM.
With `CC(C)c1ccc(-n2c(SCc3ccccc3Cl)nnc2-c2ccc(C(C)(C)C)cc2)cc1` the IC50 (PBLUC_HILL_SLOPE 6.16, PBLUC_R_SQUARED 0.605, read-out: LUCIFERASE INFECTION ASSAY - IC50) was 3.2 µM and the IC90 was 4.57 µM.
With `N#CC(C(=O)COC(=O)c1nc(-c2ccccc2)n(-c2ccccc2)n1)=C1Nc2ccccc2N1` the IC50 [1] was > 10 µM and the IC90 was > 10 µM.
`Cc1ccc2c(Cl)cc(Cl)c(Oc3ncnc4scc(-c5ccc(Cl)cc5)c34)c2n1` was tested, and the IC50 (PBLUC_HILL_SLOPE 0.397, PBLUC_R_SQUARED 0.123, read-out: LUCIFERASE INFECTION ASSAY - IC50) was > 10 µM and the IC90 was > 10 µM.
In the case of `CC(C)(C)c1csc(NC(=O)Nc2ccc(Cl)cc2)n1`, the IC50 (HEPG2TOX_HILL_SLOPE 9.42, HEPG2TOX_R_SQUARED 0.969, PBLUC_HILL_SLOPE 14.5, PBLUC_R_SQUARED 0.489, read-out: LUCIFERASE INFECTION ASSAY - IC50) is reported as 9.21 µM and the IC90 is reported as > 10.7 µM.
With `Cc1cccc(C)c1NC(=O)CSc1nc(=O)c2c(C)c(-c3ccccc3)sc2[nH]1` the IC50 [1] was > 10 µM and the IC90 was > 10 µM.
Work on `COc1cc(OC)cc(C(=O)Nc2nc(C(N)C3CCCCC3)cs2)c1` (centres undefined) yielded an IC50 [1] of 5.25 µM and an IC90 of 5.41 µM.
`CN(C)C(=O)c1ccc(-c2cc3cnc(Nc4cccc(O)c4)cc3n2Cc2ccccc2)cc1` gave an IC50 (HEPG2TOX_HILL_SLOPE 12, HEPG2TOX_R_SQUARED 0.529, PBLUC_HILL_SLOPE 3.22, PBLUC_R_SQUARED 0.748, read-out: LUCIFERASE INFECTION ASSAY - IC50) of 4.99 µM and an IC90 of 9.88 µM.
For `CC(=O)c1ccccc1NC(=O)CNc1ccccc1N(C)Cc1ccccc1`, the IC50 (PBLUC_HILL_SLOPE 3.51, PBLUC_R_SQUARED 0.275, read-out: LUCIFERASE INFECTION ASSAY - IC50) was 8.09 µM and the IC90 was > 10 µM.
Compound `O=C(Nc1ccc(Cl)cc1)Nc1cc(Cl)sc1Cl` has an IC50 [1] of 3.09 µM and an IC90 of 3.79 µM.
